Target: T1, LCAT (Homo sapiens, UniProt P04180)
T1 construct: The obtained fraction was dialyzed against phosphate-buffered saline (pH 7.4) and used as an enzyme source and an acceptor for LCAT; from tissue; host or cells: HDL3 fraction (1.125<specific gravity<1.210 g/mL) of plasma from a healthy person
T1 sequence (P04180 25-440): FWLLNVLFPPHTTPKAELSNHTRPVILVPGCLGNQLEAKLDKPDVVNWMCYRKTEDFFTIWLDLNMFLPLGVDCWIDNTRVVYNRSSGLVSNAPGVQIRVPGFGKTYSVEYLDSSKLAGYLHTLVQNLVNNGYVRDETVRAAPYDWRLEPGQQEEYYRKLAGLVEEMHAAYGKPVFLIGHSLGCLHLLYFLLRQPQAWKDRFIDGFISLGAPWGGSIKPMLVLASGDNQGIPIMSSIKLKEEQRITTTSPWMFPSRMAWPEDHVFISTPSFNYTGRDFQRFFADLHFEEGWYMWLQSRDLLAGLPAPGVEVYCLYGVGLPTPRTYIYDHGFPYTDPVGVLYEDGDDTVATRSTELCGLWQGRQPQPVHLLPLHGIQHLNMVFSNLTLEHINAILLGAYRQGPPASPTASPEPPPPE
Test: LCAT Activity Measurement (In Vitro)
Format: biochemical
Details: EC50 of LCAT activation; HDL3 fraction from plasma of a healthy person as enzyme source and acceptor; [14C]cholesterol; 37° C., approximately 16 hours
Outline: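 Human plasma HDL3 (1 mg/mL, PBS pH 7.4) served as enzyme and acceptor with [14C]cholesterol, 0.5 mM DTNB, 12.5 mM mercaptoethanol and 0.6% BSA; compounds in DMSO, incubated ~16 h at 37 °C. Cholesterol oleate radioactivity quantified after extraction and TLC; EC50 of activation fitted relative to no-drug control.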

Compound	EC50
N#Cc1cc(N2CCC(c3n[nH]c4c3C(O)(C(F)(F)F)CC(=O)N4)CC2)ccc1OC(F)F (centres unmarked) [Example 60, 2-(Difluoromethoxy)-5-{4-[4-hydroxy-6-oxo-4-(trifluoromethyl)-4,5,6,7-tetrahydro-1H-pyrazolo[3,4-b]pyridin-3-yl]piperidin-1-yl}benzonitrile]	21 nM
O=C1CC(O)(C(F)(F)F)c2c(C3CCN(c4ccc(OC5CCC5)nc4)CC3)n[nH]c2N1 (centres unmarked) [Example 61, 3-{1-[6-(Cyclobutoxy)pyridin-3-yl]piperidin-4-yl}-4-hydroxy-4-(trifluoromethyl)-1,4,5,7-tetrahydro-6H-pyrazolo[3,4-b]pyridin-6-one]	100 nM
N#Cc1cc(N2CCC(c3n[nH]c4c3C(O)(C(F)(F)F)CC(=O)N4)CC2)ccc1OC(F)(F)F (centres unmarked) [Example 62, 5-{4-[4-Hydroxy-6-oxo-4-(trifluoromethyl)-4,5,6,7-tetrahydro-1H-pyrazolo[3,4-b]pyridin-3-yl]piperidin-1-yl}-2-(trifluoromethoxy)benzonitrile]	7 nM
O=C1CC(O)(C(F)(F)F)c2c(C3CCN(c4cnc(OC(F)F)c(OC(F)F)c4)CC3)n[nH]c2N1 (centres unmarked) [Example 63, 3-{1-[5,6-bis(Difluoromethoxy)pyridin-3-yl]piperidin-4-yl}-4-hydroxy-4-(trifluoromethyl)-1,4,5,7-tetrahydro-6H-pyrazolo[3,4-b]pyridin-6-one]	31 nM
CC(C)c1ccc(N2CCC(c3n[nH]c4c3C(O)(C(F)(F)F)CC(=O)N4)CC2)nc1 (centres unmarked) [Example 64, 4-Hydroxy-3-{1-[5-isopropylpyridin-2-yl]piperidin-4-yl]-4-(trifluoromethyl)-1,4,5,7-tetrahydro-6H-pyrazolo[3,4-b]pyridin-6-one]	56 nM
O=C1CC(O)(C(F)(F)F)c2c(C3CCN(c4cnc(C(F)(F)F)nc4)CC3)n[nH]c2N1 (centres unmarked) [Example 65, 4-Hydroxy-4-(trifluoromethyl)-3-{1-[2-(trifluoromethyl)pyrimidin-5-yl]piperidin-4-yl}-1,4,5,7-tetrahydro-6H-pyrazolo[3,4-b]pyridin-6-one]	13 nM
O=C1CC(O)(C(F)(F)F)c2c(C3CCN(c4cnc(C5CC5)nc4)CC3)n[nH]c2N1 (centres unmarked) [Example 66, 3-[1-(2-Cyclopropylpyrimidin-5-yl)piperidin-4-yl]-4-hydroxy-4-(trifluoromethyl)-1,4,5,7-tetrahydro-6H-pyrazolo[3,4-b]pyridin-6-one]	68 nM
CN(C)c1ncc(N2CCC(c3n[nH]c4c3C(O)(C(F)(F)F)CC(=O)N4)CC2)cn1 (centres unmarked) [Example 67, 3-{1-[2-(Dimethylamino)pyrimidin-5-yl]piperidin-4-yl}-4-hydroxy-4-(trifluoromethyl)-1,4,5,7-tetrahydro-6H-pyrazolo[3,4-b]pyridin-6-one]	330 nM
CN(C)c1ccc(N2CCC(c3n[nH]c4c3C(O)(C(F)(F)F)CC(=O)N4)CC2)cn1 (centres unmarked) [Example 68, 3-{1-[6-(Dimethylamino)pyridin-3-yl]piperidin-4-yl}-4-hydroxy-4-(trifluoromethyl)-1,4,5,7-tetrahydro-6H-pyrazolo[3,4-b]pyridin-6-one]	760 nM
CN(C)C(=O)c1cc(N2CCC(c3n[nH]c4c3C(O)(C(F)(F)F)CC(=O)N4)CC2)ccc1C(F)(F)F (centres unmarked) [Example 69, 5-{4-[4-Hydroxy-6-oxo-4-(trifluoromethyl)-4,5,6,7-tetrahydro-1H-pyrazolo[3,4-b]pyridin-3-yl]piperidin-1-yl}-N,N-dimethyl-2-(trifluoromethyl)benzamide]	190 nM
O=C1CC(O)(C(F)(F)F)c2c(C3CCN(c4ccc(F)cc4)CC3)n[nH]c2N1 (centres unmarked) [Example 70, 3-[1-(4-Fluorophenyl)piperidin-4-yl]-4-hydroxy-4-(trifluoromethyl)-1,4,5,7-tetrahydro-6H-pyrazolo[3,4-b]pyridin-6-one]	300 nM
O=C1CC(O)(C(F)(F)F)c2c(C3CCN(c4nc(C5CC5)no4)CC3)n[nH]c2N1 (centres unmarked) [Example 71, 3-[1-(3-Cyclopropyl-1,2,4-oxadiazol-5-yl)piperidin-4-yl]-4-hydroxy-4-(trifluoromethyl)-1,4,5,7-tetrahydro-6H-pyrazolo[3,4-b]pyridin-6-one]	520 nM
CC(C)(C)c1ncc(N2CCC(c3n[nH]c4c3C(O)(C(F)(F)F)CC(=O)N4)CC2)cn1 (centres unmarked) [Example 72, 3-[1-(2-tert-Butylpyrimidin-5-yl)piperidin-4-yl]-4-hydroxy-4-(trifluoromethyl)-1,4,5,7-tetrahydro-6H-pyrazolo[3,4-b]pyridin-6-one]	23 nM
CCc1ccc(N2CCC(c3n[nH]c4c3C(O)(C(F)(F)F)CC(=O)N4)CC2)nc1 (centres unmarked) [Example 73, 3-[1-(5-Ethylpyridin-2-yl)piperidin-4-yl]-4-hydroxy-4-(trifluoromethyl)-1,4,5,7-tetrahydro-6H-pyrazolo[3,4-b]pyridin-6-one]	83 nM
O=C1CC(O)(C(F)(F)F)c2c(C3CCN(c4ccc(Br)cn4)CC3)n[nH]c2N1 (centres unmarked) [Example 74, 3-[1-(5-Bromopyridin-2-yl)piperidin-4-yl]-4-hydroxy-4-(trifluoromethyl)-1,4,5,7-tetrahydro-6H-pyrazolo[3,4-b]pyridin-6-one]	140 nM
CC(C)c1cc(N2CCC(c3n[nH]c4c3C(O)(C(F)(F)F)CC(=O)N4)CC2)nc(C(C)C)n1 (centres unmarked) [Example 75, 3-{1-[2,6-di(Propan-2-yl)pyrimidin-4-yl]piperidin-4-yl}-4-hydroxy-4-(trifluoromethyl)-1,4,5,7-tetrahydro-6H-pyrazolo[3,4-b]pyridin-6-one]	220 nM
O=C1CC(O)(C(F)(F)F)c2c(C3CCN(c4ccc(OC(F)(F)F)cn4)CC3)n[nH]c2N1 (centres unmarked) [Example 76, 4-Hydroxy-3-{1-[5-(trifluoromethoxy)pyridin-2-yl]piperidin-4-yl}-4-(trifluoromethyl)-1,4,5,7-tetrahydro-6H-pyrazolo[3,4-b]pyridin-6-one]	18 nM
COC(=O)c1nc(N2CCC(c3n[nH]c4c3C(O)(C(F)(F)F)CC(=O)N4)CC2)ccc1C(F)(F)F (centres unmarked) [Example 77, Methyl 6-{4-[4-hydroxy-6-oxo-4-(trifluoromethyl)-4,5,6,7-tetrahydro-1H-pyrazolo[3,4-b]pyridin-3-yl]piperidin-1-yl}-3-(trifluoromethyl)pyridine-2-carboxylate]	58 nM
N#Cc1cnc(N2CCC(c3n[nH]c4c3C(O)(C(F)(F)F)CC(=O)N4)CC2)cn1 (centres unmarked) [Example 78, 5-{4-[4-Hydroxy-6-oxo-4-(trifluoromethyl)-4,5,6,7-tetrahydro-1H-pyrazolo[3,4-b]pyridin-3-yl]piperidin-1-yl}pyrazine-2-carbonitrile]	220 nM
O=C1CC(O)(C(F)(F)F)c2c(C3CCN(c4ccnc(C(F)(F)F)n4)CC3)n[nH]c2N1 (centres unmarked) [Example 79, 4-Hydroxy-4-(trifluoromethyl)-3-{1-[2-(trifluoromethyl)pyrimidin-4-yl]piperidin-4-yl}-1,4,5,7-tetrahydro-6H-pyrazolo[3,4-b]pyridin-6-one]	300 nM
O=C1CC(O)(C(F)(F)F)c2c(C3CCN(c4nccc(C(F)(F)F)n4)CC3)n[nH]c2N1 (centres unmarked) [Example 80, 4-Hydroxy-4-(trifluoromethyl)-3-{1-[4-(trifluoromethyl)pyrimidin-2-yl]piperidin-4-yl}-1,4,5,7-tetrahydro-6H-pyrazolo[3,4-b]pyridin-6-one]	380 nM
N#Cc1cnc(N2CCC(c3n[nH]c4c3C(O)(C(F)(F)F)CC(=O)N4)CC2)s1 (centres unmarked) [Example 81, 2-{4-[4-Hydroxy-6-oxo-4-(trifluoromethyl)-4,5,6,7-tetrahydro-1H-pyrazolo[3,4-b]pyridin-3-yl]piperidin-1-yl}-1,3-thiazole-5-carbonitrile]	470 nM
COC(=O)c1cc(N2CCC(c3n[nH]c4c3C(O)(C(F)(F)F)CC(=O)N4)CC2)ncc1C(F)(F)F (centres unmarked) [Example 82, Methyl 2-{4-[4-hydroxy-6-oxo-4-(trifluoromethyl)-4,5,6,7-tetrahydro-1H-pyrazolo[3,4-b]pyridin-3-yl]piperidin-1-yl}-5-(trifluoromethyl)pyridine-4-carboxylate]	32 nM
CN(C)C(=O)c1nc(N2CCC(c3n[nH]c4c3C(O)(C(F)(F)F)CC(=O)N4)CC2)ccc1C(F)(F)F (centres unmarked) [Example 83, 6-{4-[4-Hydroxy-6-oxo-4-(trifluoromethyl)-4,5,6,7-tetrahydro-1H-pyrazolo[3,4-b]pyridin-3-yl]piperidin-1-yl}-N,N-dimethyl-3-(trifluoromethyl)pyridine-2-carboxamide]	420 nM
CN(C)C(=O)c1cc(N2CCC(c3n[nH]c4c3C(O)(C(F)(F)F)CC(=O)N4)CC2)ncc1C(F)(F)F (centres unmarked) [Example 84, 2-{4-[4-Hydroxy-6-oxo-4-(trifluoromethyl)-4,5,6,7-tetrahydro-1H-pyrazolo[3,4-b]pyridin-3-yl]piperidin-1-yl}-N,N-dimethyl-5-(trifluoromethyl)pyridine-4-carboxamide]	270 nM
O=C1CC(O)(C(F)(F)F)c2c(C3CCN(c4cc(C(=O)OCc5ccccc5)c(C(F)(F)F)cn4)CC3)n[nH]c2N1 (centres unmarked) [Example 85, Benzyl 2-[4-(4-hydroxy-6-oxo-4-(trifluoromethyl)-4,5,6,7-tetrahydro-1H-pyrazolo[3,4-b]pyridin-3-yl)piperidin-1-yl]-5-(trifluoromethyl)pyridine-4-carboxylate]	13 nM

— patent publication US9150575B2, “Piperidinylpyrazolopyridine derivative” (Daiichi Sankyo Company, Limited, priority 2012, dated 2015)
